From PubChem BioAssay (NCI)
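Five compound concentrations were applied to cells in 96-well plates for 48 hours; endpoints were derived by simple linear interpolation of the resulting dose-response curve. TGI: total growth inhibition.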

Key:
Assay in all cases: NCI tumour cell line growth inhibition, 48 h
[1] = test system: SNB-75 CNS
[2] = test system: OVCAR-5 ovarian
[3] = test system: A549 NSCLC
[4] = test system: OVCAR-4 ovarian
[5] = test system: MDA-MB-231 breast
[6] = test system: SW-620 colon
[7] = test system: SK-MEL-5 melanoma
[8] = test system: U251 CNS
[9] = test system: NCI/ADR-RES ovarian
[10] = test system: UACC-257 melanoma
[11] = test system: MCF7 breast
[12] = test system: NCI-H460 lung
[13] = test system: SF-295 CNS
[14] = test system: M14 melanoma
[15] = test system: SN12C renal
[16] = test system: ACHN renal
[17] = test system: SK-MEL-28 melanoma
[18] = test system: HS 578T breast
[19] = test system: EKVX NSCLC
[20] = test system: MDA-MB-435
[21] = test system: 786-0 renal
[22] = test system: IGROV1 ovarian
[23] = test system: NCI-H522 lung
[24] = test system: UO-31 renal
[25] = test system: OVCAR-8 ovarian
[26] = test system: PC-3 prostate
[27] = test system: HOP-62 NSCLC
[28] = test system: KM12 colon
[29] = test system: SK-OV-3 ovarian
[30] = test system: HCT-116 colon
[31] = test system: HCC-2998 colon
[32] = test system: SF-268 CNS
[33] = test system: MDA-N
[34] = test system: SNB-19 CNS
[35] = test system: HL-60(TB) leukemia
[36] = test system: K-562 leukemia
[37] = test system: MOLT-4 leukemia
[38] = test system: SF-539 CNS
[39] = test system: RPMI-8226 leukemia
[40] = test system: T-47D breast
[41] = test system: COLO 205 colon
[42] = test system: CCRF-CEM leukemia
[43] = test system: TK-10 renal
[44] = test system: HCT-15 colon
[45] = test system: DU-145 prostate
[46] = test system: RXF 393 renal
[47] = test system: SK-MEL-2 melanoma
[48] = test system: OVCAR-3 ovarian
[49] = test system: HT29 colon
[50] = test system: LOX IMVI melanoma
[51] = test system: NCI-H226 lung
[52] = test system: CAKI-1 renal
[53] = test system: MALME-3M melanoma
[54] = test system: SR leukemia
[55] = test system: A498 renal
[56] = test system: BT-549 breast
[57] = test system: HOP-92 NSCLC
[58] = test system: NCI-H23 lung
[59] = test system: UACC-62 melanoma

## COc1cc(C2c3cc4c(cc3[C@@H](Nc3ccc(F)cc3)C3CO[C@@H](O)[C@H]23)OCO4)cc(OC)c1O (stereo partly drawn)
[1]
  TGI: > 25 µM
[2]
  TGI: 12.8 µM
[3]
  TGI: > 25 µM
[4]
  TGI: > 25 µM
[5]
  TGI: > 25 µM
[6]
  TGI: > 25 µM
[7]
  TGI: > 25 µM
[8]
  TGI: 8.47 µM
[9]
  TGI: > 25 µM
[10]
  TGI: > 25 µM
[11]
  TGI: > 25 µM
[12]
  TGI: > 25 µM
[13]
  TGI: 10.3 µM
[14]
  TGI: > 25 µM
[15]
  TGI: > 25 µM
[16]
  TGI: 6.88 µM
[17]
  TGI: > 25 µM
[18]
  TGI: 14.7 µM
[19]
  TGI: > 25 µM
[20]
  TGI: > 25 µM
[21]
  TGI: > 25 µM
[22]
  TGI: > 25 µM
[23]
  TGI: 15 µM
[24]
  TGI: 8.28 µM
[25]
  TGI: > 25 µM
[26]
  TGI: > 25 µM
[27]
  TGI: > 25 µM
[28]
  TGI: > 25 µM
[29]
  TGI: > 25 µM
[30]
  TGI: > 25 µM
[31]
  TGI: > 25 µM
[32]
  TGI: > 25 µM
[33]
  TGI: > 25 µM
[34]
  TGI: > 25 µM
[35]
  TGI: 5.23 µM
[36]
  TGI: > 25 µM
[37]
  TGI: 4.43 µM
[38]
  TGI: 12.6 µM
[39]
  TGI: > 25 µM
[40]
  TGI: > 25 µM
[41]
  TGI: > 25 µM
[42]
  TGI: 7.72 µM
[43]
  TGI: > 25 µM
[44]
  TGI: > 25 µM

## O=C(Cc1cc(=O)oc2cc(O)ccc12)N/N=C/c1ccc(N(CCCl)CCCl)cc1
[45]
  TGI: 41 µM
[1]
  TGI: 38.5 µM
[2]
  TGI: 55 µM
[3]
  TGI: 32 µM
[4]
  TGI: 87.3 µM
[5]
  TGI: 33.3 µM
[6]
  TGI: > 100 µM
[7]
  TGI: 27.7 µM
[8]
  TGI: 34.1 µM
[9]
  TGI: > 100 µM
[10]
  TGI: 63.1 µM
[11]
  TGI: 41.8 µM
[12]
  TGI: 29.4 µM
[46]
  TGI: 31 µM
[47]
  TGI: > 100 µM
[48]
  TGI: 33.1 µM
[13]
  TGI: 34.3 µM
[14]
  TGI: 37.8 µM
[15]
  TGI: 41.3 µM
[16]
  TGI: 32.7 µM
[17]
  TGI: 28.6 µM
[49]
  TGI: 45.1 µM
[18]
  TGI: 57.3 µM
[19]
  TGI: 44.1 µM
[50]
  TGI: 36.4 µM
[20]
  TGI: 47.7 µM
[21]
  TGI: 37.3 µM
[22]
  TGI: 41.9 µM
[23]
  TGI: 45 µM
[51]
  TGI: 35 µM
[24]
  TGI: 46.2 µM
[25]
  TGI: 29.4 µM
[52]
  TGI: 31.7 µM
[53]
  TGI: 40.9 µM
[54]
  TGI: 40.5 µM
[26]
  TGI: 35.2 µM
[55]
  TGI: 41.2 µM
[27]
  TGI: 41.4 µM
[28]
  TGI: > 100 µM
[56]
  TGI: 30.8 µM
[57]
  TGI: 43.8 µM
[30]
  TGI: 30.2 µM
[31]
  TGI: > 100 µM
[32]
  TGI: 30.4 µM
[33]
  TGI: 63 µM
[58]
  TGI: 69.4 µM
[34]
  TGI: 42.4 µM
[35]
  TGI: 37.6 µM
[36]
  TGI: 82.1 µM
[37]
  TGI: 94.6 µM
[38]
  TGI: 35.6 µM
[39]
  TGI: 43.6 µM
[41]
  TGI: 72 µM
[42]
  TGI: 74.7 µM
[44]
  TGI: > 100 µM

## Cc1ccc2c(/C=C/c3ccc(N(C)C)cc3)ccnc2c1C
[45]
  TGI: > 100 µM
[1]
  TGI: 38.5 µM
[2]
  TGI: > 100 µM
[3]
  TGI: > 100 µM
[5]
  TGI: > 100 µM
[6]
  TGI: > 100 µM
[7]
  TGI: 43.2 µM
[8]
  TGI: > 100 µM
[9]
  TGI: > 100 µM
[10]
  TGI: > 100 µM
[11]
  TGI: 61.3 µM
[12]
  TGI: > 100 µM
[46]
  TGI: 48.4 µM
[48]
  TGI: > 100 µM
[13]
  TGI: > 100 µM
[14]
  TGI: > 100 µM
[15]
  TGI: > 100 µM
[16]
  TGI: 96.7 µM
[17]
  TGI: 52.9 µM
[49]
  TGI: 62.3 µM
[18]
  TGI: > 100 µM
[19]
  TGI: > 100 µM
[50]
  TGI: > 100 µM
[20]
  TGI: > 100 µM
[21]
  TGI: > 100 µM
[23]
  TGI: 63.9 µM
[51]
  TGI: > 100 µM
[24]
  TGI: 54 µM
[25]
  TGI: 60.8 µM
[52]
  TGI: > 100 µM
[53]
  TGI: 40.6 µM
[26]
  TGI: 64.3 µM
[55]
  TGI: > 100 µM
[27]
  TGI: > 100 µM
[28]
  TGI: 72.3 µM
[29]
  TGI: 67.9 µM
[57]
  TGI: 57.1 µM
[30]
  TGI: > 100 µM
[31]
  TGI: 95.6 µM
[32]
  TGI: > 100 µM
[33]
  TGI: > 100 µM
[58]
  TGI: > 100 µM
[34]
  TGI: > 100 µM
[35]
  TGI: 80.7 µM
[36]
  TGI: > 100 µM
[37]
  TGI: > 100 µM
[59]
  TGI: 73.1 µM
[38]
  TGI: > 100 µM
[39]
  TGI: 31 µM
[40]
  TGI: > 100 µM
[41]
  TGI: 55.6 µM
[42]
  TGI: > 100 µM
[43]
  TGI: 43.6 µM
[44]
  TGI: > 100 µM
